In patent US7148193B2, “Compounds that bind to growth hormone receptor” (Antyra, Inc., priority 1997, dated 2006):
Where a SMILES comes first, the peptide text is derived from it. Bridges are numbered along the chain shown (N, C = ends).

Assays:
[1] = molecular target: T1, rat growth hormone receptor (Rattus norvegicus, UniProt P16310); assay: Cell proliferation assay (WST-1) in FDC-1 cells stably transfected with rat growth hormone receptor; type: cell-based; conditions: 18 h
T1 construct: expressed in transfected cells; host or cells: FDC-1 cells
T1 sequence (P16310 19-638): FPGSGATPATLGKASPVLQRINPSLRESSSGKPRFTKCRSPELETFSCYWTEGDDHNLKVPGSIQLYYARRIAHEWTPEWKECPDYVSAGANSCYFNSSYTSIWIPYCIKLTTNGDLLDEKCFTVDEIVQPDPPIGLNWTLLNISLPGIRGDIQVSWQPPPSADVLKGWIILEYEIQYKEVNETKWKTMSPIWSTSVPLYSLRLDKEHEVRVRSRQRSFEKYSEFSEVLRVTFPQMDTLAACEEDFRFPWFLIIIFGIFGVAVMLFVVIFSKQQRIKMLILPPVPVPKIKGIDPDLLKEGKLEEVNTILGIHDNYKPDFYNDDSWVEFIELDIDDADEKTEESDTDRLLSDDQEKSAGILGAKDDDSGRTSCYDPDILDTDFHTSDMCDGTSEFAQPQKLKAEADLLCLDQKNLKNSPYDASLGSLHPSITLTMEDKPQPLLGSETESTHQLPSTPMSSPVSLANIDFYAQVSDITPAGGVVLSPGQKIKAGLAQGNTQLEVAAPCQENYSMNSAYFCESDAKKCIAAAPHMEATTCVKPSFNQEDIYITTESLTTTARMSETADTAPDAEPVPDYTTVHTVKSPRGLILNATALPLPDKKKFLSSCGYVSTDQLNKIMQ
Description: Cells transfected with rat GHR (50,000 cells per well) were incubated with either bovine GH, H5 peptide (SEQ ID NO:8), 447 peptide (SEQ ID NO:11) or control peptide (SEQ ID NO:10) for 18 h at 37° C. Experiments were done in triplicate. Background signal A450=0.15. […] Cells transfected with rat GHR (50,000 cells per well) containing […] bovine GH were incubated with either control peptide (SEQ ID NO:10), H5 peptide (SEQ ID NO:8) or 447 peptide (SEQ ID NO:11) for 18 h at 37° C. Proliferation was measured using WST-1 reagent. The “*” symbol corresponds to the A450 measurement for the cells incubated without GH.
Agonistic and antagonistic activities of the two peptides, H5WT (SEQ ID NO:8) and bP#447 ([…]), were tested in FDC-1 cells stably transfected with the gene encoding the rat growth hormone receptor. The resulting cell line required either IL-3 or GH for growth. The cells were grown in RPMI 1640 medium containing 10% FCS (fetal calf serum) and 20 units of IL-3 per ml. […] activity assays were performed in a total volume of 100 μl in 96 well plates (flat bottom). Cells were seeded at 50,000 cells/well in 50 μl RPMI 1640 (without IL-3) medium containing horse serum instead of FCS to reduce background. To duplicate wells, 50 μl of either growth hormone or peptides at different concentrations was added, followed by incubation for 18 h in a CO2 incubator. Assays to measure the antagonistic activity were performed in a total volume of 100 μl in 96 well plates. Either H5WT peptide (SEQ ID NO:8), bP#447 peptide (SEQ ID NO:11), or control peptide (SEQ ID NO:10) was added to cells containing 0.003 μM of bovine GH and incubated at 37° C. for 18 h in a CO2 incubator. Proliferation assays were performed using WST-1 reagent. The WST-1 tetrazolium salt (light red color) is cleaved to formazan (dark red color) by the succinate-tetrazolium reductase system, which is active only in viable cells. […] Ten microliters of WST-1 reagent was added and the plates incubated for 1–4 h 37° C. Proliferation was measured by absorbance at 450 nm.

[2] = molecular target: T2, rGHBP (Rattus norvegicus, UniProt P16310); assay: Phage ELISA binding and competition on rGHBP coated wells
T2 construct: 1–48 of GHBP; The 3′ oligo used for this reaction encoded the mutation L43R (CTG→AGA); The second PCR reaction amplified the DNA encoding amino acids 38–260; 6xHis; made in house
T2 sequence (P16310 19-278 isoform P16310-2): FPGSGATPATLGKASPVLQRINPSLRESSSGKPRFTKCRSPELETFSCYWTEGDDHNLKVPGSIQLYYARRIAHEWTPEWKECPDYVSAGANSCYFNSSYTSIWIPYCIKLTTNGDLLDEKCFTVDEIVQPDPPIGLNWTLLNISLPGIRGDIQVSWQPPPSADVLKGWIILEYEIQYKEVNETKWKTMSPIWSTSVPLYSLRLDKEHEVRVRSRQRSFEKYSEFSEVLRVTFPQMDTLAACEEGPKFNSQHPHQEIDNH
Description: For analysis of individual clones, colonies were picked and phage prepared as described above. Microtiter wells were coated and blocked as described above. Wells were coated with either rGHBP or a control IgG MAb. Phage resuspended in MPBS were added to duplicate wells (100 μl/well) and incubated at room temperature for 1 hr. The phage solution was then removed, and the wells were washed three times with PBS at room temperature. Anti-M13 antibody conjugated to horseradish peroxidase (Pharmacia Biotech) was diluted 1:3000 in MPBS and added to each well (100 μl/well). Incubation was for another hour at room temperature, followed by PBS washes as described. Color was developed by addition of ABTS solution (100 μl/well; Boehringer). Color development was stopped by adjusting each well to 0.5% SDS. Plates were analyzed at 405 nm using a SpectraMax 340 plate reader (Molecular Devices) and SoftMax Pro software. Data points were averaged after subtraction of appropriate blanks. A clone was considered “positive” if the A405 of the well was >2-fold over background. […]
These clones were next analyzed for binding to the receptor's active sites (FIG. 2B). Competitions of phage binding were done both with the cognate ligand (i.e., GH) and with a specific target-neutralizing MAb 2C3 (Wang, B. S., et al. Mol. Cellular Endocrinology, vol. 116, p. 223–226, 1996).
Clones were tested for the presence of E-tag and binding to ‘hu’ GHBP, rGHBP, or BSA-coated wells. Those having specific GHBP binding (i.e., at least 2 fold greater binding to the GHBP than BSA) and with an E-tag positive signal were subjected to DNA sequencing. Three different clones were isolated and tested a second time against GHBP plus and minus GH (1 μM) or BSA (1 μM) coated wells as described. In these tests, huGH was used as competitor with ‘hu’ GHBP coated wells and bovineGH was used as a competitor with rat GHBP coated wells. […] The following open reading frame insertion including the DYKD (SEQ ID NO:79) amino terminal tag and up to the C-terminal E-tag was obtained for these clones; and is shown in Table III: […]

Q: Which antagonistic activity ([1]; cells with 0.003 μM bovine GH, at the concentrations tested) does the source give for `CC(C)C[C@@H]1NC(=O)[C@H](CO)NC(=O)[C@H](CCC(N)=O)NC(=O)[C@@H](NC(=O)[C@H](CC(C)C)NC(=O)[C@H](CC(=O)O)NC(=O)[C@H](CCCCN)NC(=O)[C@H](Cc2ccc(O)cc2)NC(=O)[C@@H](N)CC(=O)O)CSSC[C@@H](C(=O)N[C@@H](C)C(=O)N[C@@H](CCCCN)C(=O)N[C@@H](CCCCN)C(=O)O)NC(=O)[C@H](Cc2c[nH]c3ccccc23)NC(=O)CNC(=O)[C@H](C)NC(=O)[C@H](CC(C)C)NC(=O)[C@H](Cc2c[nH]c3ccccc23)NC(=O)CNC(=O)[C@@H]2CCCN2C(=O)[C@H](Cc2ccc(O)cc2)NC(=O)[C@H]([C@@H](C)O)NC(=O)[C@H](C(C)C)NC(=O)CNC1=O` [H5] (H-DYKDLCQSLGVTYPGWLAGWCAKK-OH; disulfide 6-21; N-terminus and C-terminus assumed) here?
A: The antagonistic activity was “no antagonistic activity”.

Q: What about the agonistic activity ([1]; no GH added, WST-1 A450) of the same compound?
A: The agonistic activity was “partial agonistic activity”.

Q: And the “ELISA Competition, rGHBP, +BSA” value ([2]; ELISA signal, BSA 1 μM, phage concentrated 15×)?
A: Its value is 1.87.

Q: What about the “ELISA Competition, rGHBP, +bGH” value ([2]; ELISA signal, bovine GH 1 μM, phage concentrated 15×) of the same compound?
A: The value was 0.32.

Q: What about the “ELISA Competition, rGHBP, none” value ([2]; ELISA signal, no competitor, phage concentrated 15×) of the same compound?
A: Its value is 1.91.

Q: And the “phage binding to rGHBP blocked by GH and MAb 2C3” value ([2]; competition ELISA of phage binding)?
A: The value was “blocked both by GH and by MAb 2C3”.
